Data published in US9585897B2, “Anti-infective hydroxy-phenyl-benzoates and methods of use” (priority 2008, dated 2017).

Key:
[1] = tested on: SA strains SH1000 (MSSA), USA300 (MRSA); assay: Gene expression quantified by realtime PCR, statements covering both SA strains; assay type: cell-based, Staphylococcus aureus
[2] = tested on: S. aureus IE; assay: Rabbit model of S. aureus IE, aspirin, vancomycin or both for 2 d; assay type: in vivo
Description: In the rabbit model of S. aureus IE, two intravenous (iv) aspirin dose regimens designed to encompass those used in a previous aspirin-alone efficacy study (4 or 8 mg/kg/d) were employed. Animals received aspirin alone, vancomycin alone at a low dose regimen (7.5 mg/kg bid iv), or the two agents combined. Treatment was only for 2 d, based on the rationale that as the in vivo effects of vancomycin are traditionally slow in onset, maximal disclosure of any synergistic effect of the two compounds may emerge at this early time point.

[3] = tested on: S. aureus: ISP479C, Newman and COL; assay: In vitro MICs of aspirin and SAL; assay type: cell-based, Staphylococcus aureus; settings: 10-50 ug/ml up to 8 mg/ml
[4] = tested on: strain RN6390; assay: Rabbit model of IE, aspirin alone 4 to 12 mg/kg/d for 4 d; assay type: in vivo
Description: To begin to assess the in vitro data sets for in vivo relevance, the rabbit model of IE as described by […] et al. Handbook of Animal Models of Infection. Academic Press, New York, N.Y., was utilized. Animals with pre-established IE caused by strain RN6390 were administered a wide range of iv aspirin dose regimens (4 to 12 mg/kg/d for 4 d therapy). This range affords human-equivalent sera levels in rabbits as described in Kupferwasser et al. Circulation. 1999 99:2791-7.

[5] = tested on: three distinct S. aureus strains; assay: NSAID effect on phenotypic or genotypic characteristics of S. aureus in vitro; assay type: cell-based, Staphylococcus aureus
Description: These findings also substantiate the concept that the anti-infective properties of aspirin likely occur by both platelet-dependent (aspirin) and platelet independent (SAL) mechanisms. Thus, the discovery of adjunctive use of SALs for MRSA infections are particularly relevant given: 1) long-term and extensive experience of aspirin for a variety of clinical indications; 2) its well-defined pharmacokinetics; and 3) its excellent adverse event and safety profiles.

[6] = tested on: S. aureus strains MSSA (6850), MRSA (COL), RN6390, SH1000, sigB operon deleted strains; assay: Rabbit IE model with a range of S. aureus strains; assay type: in vivo
[7] = Plasma prostacyclin levels after aspirin dosing
[8] = tested on: S. aureus; assay type: cell-based, Staphylococcus aureus; settings: for agr expression: dose-dependent, SAL at 25 or 50 μg/ml, DICL, 2.5 or 5 μg/ml
[9] = tested on: SA strains SH1000 (MSSA), USA300 (MRSA); assay: Hemolysin phenotype compared to gene expression; settings: in parallel to hla; 25 μg/ml
[10] = tested on: SH1000 (MSSA); assay: Gene expression quantified by realtime PCR, strain SH1000; settings: early log phase (2-4 hr); 25 μg/ml
[11] = tested on: USA300 (MRSA); assay: Gene expression quantified by realtime PCR, strain USA300; settings: early log phase (2-4 hr); 25 μg/ml
[12] = tested on: SA strains SH1000 (MSSA), USA300 (MRSA); assay: Antibiotic resistance phenotype (antibiotic MIC) in presence of salicylates; settings: vs. both strains
[13] = tested on: S. aureus (9 individual strains); assay: S. aureus-to-fibrinogen or -fibronectin binding, solid-phase assays; assay type: cell-based, Staphylococcus aureus; settings: pre-exposed to SAL 30 and 50 μg/ml; composite of 9 strains; dose-dependent
Description: Induction of endovascular infections is linked to the microbial binding to relevant vascular damage sites.
Fibrinogen and fibronectin play key roles as ligands for S. aureus binding to cellular docking sites (e.g., platelets and endothelial cells), as well as bridging molecules that facilitate these same interactions in which additional factors are operative (e.g., gC1qR-platelet or endothelial cell binding). Peerschke and Ghebrehiwet, Immunobiology.
Mean reduction (±SD) vs. control (100%). Data are composite results of laboratory S. aureus RN6390, COL, Newman, and ISP479C, and clinical MRSA 67-0, 6850, Duke 28, Duke 153, and Duke 237. […] Key: A P<0.005; B <P 0.001.

[14] = tested on: S. aureus; assay: Solid-phase plate assay, adherence to fibrin and platelet-fibrin matrices; assay type: cell-based, Staphylococcus aureus; settings: organism pre-exposure to SAL in vitro
Description: A solid-phase plate assay was used to quantify the impact of SAL on the ability of S. aureus to adhere to fibrin and platelet-fibrin matrices. Platelet-rich (PRP) or platelet-free plasma (PFP) from control animals or those given a single-dose of aspirin iv (8 mg/kg) 5 hr prior to plasma isolation, were used to generate such matrices. […] Kupferwasser et al. Circulation. 1999 99:2791-7. These strains bound equally to control matrices and those constructed from aspirin-treated animals (data not shown).

[15] = tested on: S. aureus α-toxin; assay type: cell-based, Staphylococcus aureus
[16] = tested on: S. aureus; assay: Protease activity in S. aureus supernatants; assay type: cell-based, Staphylococcus aureus; settings: in the presence of SAL
[17] = tested on: S. aureus FDA 486 and rsbU/V/W mutants; assay type: cell-based, Staphylococcus aureus
[18] = tested on: S. aureus: ISP479C, Newman and COL; settings: physiologically relevant drug concentrations; cited from earlier work
[19] = tested on: S. aureus; assay: sarA-repressible genes, lipase and protein A; settings: in the presence of SAL

O=C(O)c1cc(O)ccc1O [GTA, gentisic acid]
gene expression ([1]; 25 μg/ml): did not alter

CC(=O)Oc1ccccc1C(=O)O [aspirin, acetylsalicylic acid]
modulation of gene expression or hemolysis ([1]; 25 μg/ml): limited modulation | bacterial counts in vegetations and kidneys ([2]; aspirin 8 mg/kg/d iv): significantly reduces | growth inhibition (in vitro MIC testing) [3]: no substantial growth inhibition | beneficial effects of 8 mg/kg/d versus lower (4 mg/kg/d) or higher (12 mg/kg/d) dose regimens ([4]; 8 mg/kg/d): significantly exceeded | beneficial effects at increased dose ([4]; aspirin 12 mg/kg/d): paradoxical loss | vegetation weight, and vegetation and kidney bacterial densities ([4]; iv aspirin 4 to 12 mg/kg/d for 4 d): consistent and dose-dependent reduction | mass of echocardiographic detectable cardiac valve vegetations ([4]; rabbit, in vivo): dramatic reductions | changes in phenotypic or genotypic characteristics [5]: neither aspirin (parent compound of SAL) nor indomethacin caused detectable changes | effects of aspirin treatment across strains ([6]; RN6390 and rsbU-repaired variant SH1000): Equivalent salutary effects | impact of aspirin ([6]; strains deleted of their entire sigB operon): dampened | prostacyclin generation ([7]; 12 mg/kg aspirin dosing): prolonged suppression | prolonged suppression of prostacyclin generation ([7]; 4 or 8 mg/kg aspirin): neither at 4 or 8 mg/kg

O=C(O)Cc1ccccc1Nc1c(Cl)cccc1Cl [DICL, diclofenac]
agr expression [8]: reduced

O=C(O)c1cc(-c2ccc(F)cc2F)ccc1O [DIF, 5-(2,4-difluorophenyl)-2-hydroxy-benzoic acid]
regulatory and VF gene expression in MSSA and MRSA [1]: significantly modulate | effectiveness relative to SAL in suppressing virulence factor regulation or expression in MRSA ([1]; in vitro, MRSA including USA300): approximately 10 fold | reduction of RNAIII (agr), hla, sspA compared with SAL ([1]; log phase): ten-fold higher reduction | Hemolysis phenotypes [9]: suppressed | suppression of agr RNAIII, hla, and vraR [10]: > 20 fold | expression of agr RNAIII, hla, mprF, and sspA [11]: suppressed | increases in ciprofloxacin MIC [12]: prevented increases

O=C(O)c1ccccc1O [SAL, salicylic acid]
regulatory and VF gene expression in MSSA and MRSA [1]: significantly modulate | modulation of gene expression or hemolysis ([1]; 25 μg/ml): limited modulation | growth inhibition (in vitro MIC testing) [3]: no substantial growth inhibition | fibrinogen and fibronectin binding [13]: significant reductions | binding to fibrin and platelet-fibrin matrices [14]: Significant reductions | Hla protein production [15]: dose dependent reduction | thrombolysis and hemolysis by supernates [15]: reduced | α-toxin elaboration [15]: reduced | protease activity in supernatants [16]: increased up to five-fold | hla expression [8]: significantly reduced | protein A gene expression (spa) [8]: increased | sarA (P1) expression [8]: down-regulating | sarC (P3) expression [8]: up-regulating | agr expression [8]: reduced | sigB expression (as measured by increases in asp23 expression) [17]: induces | in vivo efficacy compared with aspirin ([6]; same in vivo efficacy study carried out with SAL): equivalent results to aspirin alone | intrinsic bacteriostatic or bactericidal effects [18]: no evident intrinsic bacteriostatic or bactericidal effects | Lipase activity increase [19]: ~2.6 fold | protein A expression increase [19]: ~20%

COc1ccc2c(c1)c(CC(=O)O)c(C)n2C(=O)c1ccc(Cl)cc1 [indomethacin]
changes in phenotypic or genotypic characteristics [5]: neither aspirin (parent compound of SAL) nor indomethacin caused detectable changes

CN[C@H](CC(C)C)C(=O)N[C@H]1C(=O)N[C@@H](CC(N)=O)C(=O)N[C@H]2C(=O)N[C@H]3C(=O)N[C@H](C(=O)N[C@H](C(=O)O)c4cc(O)cc(O)c4-c4cc3ccc4O)[C@H](O)c3ccc(c(Cl)c3)Oc3cc2cc(c3O[C@@H]2O[C@H](CO)[C@@H](O)[C@H](O)[C@H]2O[C@H]2C[C@](C)(N)[C@H](O)[C@H](C)O2)Oc2ccc(cc2Cl)[C@H]1O [vancomycin]
bacterial counts in vegetations and kidneys ([2]; vancomycin 7.5 mg/kg bid iv): significantly reduces
